The values below come from patent US12122761B2, “2-azaspiro[3.4]octane derivatives as M4 agonists” (NOVARTIS AG, priority 2019, dated 2024).

pEC50: −log10 of the molar value.

Assay [1] addresses T1, human cloned CHRM5 receptor (M5_CHO) (Homo sapiens, UniProt P08912).
T1 construct: expressed in transfected cells; host or cells: CHO (M5_CHO)
T1 sequence (P08912 1-532): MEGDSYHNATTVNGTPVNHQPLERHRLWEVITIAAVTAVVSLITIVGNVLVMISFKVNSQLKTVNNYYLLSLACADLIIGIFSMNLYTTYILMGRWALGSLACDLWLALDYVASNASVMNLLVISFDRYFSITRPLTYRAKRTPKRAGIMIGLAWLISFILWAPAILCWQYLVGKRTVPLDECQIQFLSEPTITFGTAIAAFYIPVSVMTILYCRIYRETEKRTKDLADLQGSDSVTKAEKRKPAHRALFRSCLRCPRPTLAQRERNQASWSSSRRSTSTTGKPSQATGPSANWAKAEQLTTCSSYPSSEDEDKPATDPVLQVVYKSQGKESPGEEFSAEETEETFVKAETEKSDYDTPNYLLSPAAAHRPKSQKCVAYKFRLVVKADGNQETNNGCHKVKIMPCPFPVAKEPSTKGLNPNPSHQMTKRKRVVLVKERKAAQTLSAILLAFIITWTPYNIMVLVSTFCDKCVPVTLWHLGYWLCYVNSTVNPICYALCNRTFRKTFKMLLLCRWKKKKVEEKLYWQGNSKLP
In words: CHRM5 Ca++ Flux Assay (agonist mode, FDSS 7000EX). The assay is classed as cell-based. The note with it: for Emax / M5 FDSS PA: Percent Activity measured to EC100 of Carbachol; for Emax: read-out: M5 FDSS PA; for pEC50: agonist mode, geometric mean if tested more than once, read-out: M5 FDSS EC50. The procedure, abridged:
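Agonist-mode calcium flux: 11-point dose responses, triplicate wells, fluorescence followed for 3 minutes. Cells are M3_CHO or M5_CHO lines (human receptors) with Ca++ indicator in probenecid-containing HEPES/HBSS buffer. Percent activity is referenced to carbachol EC100, and curves come from four-parameter nonlinear regression.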

Assay [2] deals with T2, Cloned human M1 receptor (CHRM1) stably expressed in HEK293 cells (Homo sapiens, UniProt P11229).
T2 construct: expressed in transfected cells; host or cells: HEK293
T2 sequence (P11229 1-460): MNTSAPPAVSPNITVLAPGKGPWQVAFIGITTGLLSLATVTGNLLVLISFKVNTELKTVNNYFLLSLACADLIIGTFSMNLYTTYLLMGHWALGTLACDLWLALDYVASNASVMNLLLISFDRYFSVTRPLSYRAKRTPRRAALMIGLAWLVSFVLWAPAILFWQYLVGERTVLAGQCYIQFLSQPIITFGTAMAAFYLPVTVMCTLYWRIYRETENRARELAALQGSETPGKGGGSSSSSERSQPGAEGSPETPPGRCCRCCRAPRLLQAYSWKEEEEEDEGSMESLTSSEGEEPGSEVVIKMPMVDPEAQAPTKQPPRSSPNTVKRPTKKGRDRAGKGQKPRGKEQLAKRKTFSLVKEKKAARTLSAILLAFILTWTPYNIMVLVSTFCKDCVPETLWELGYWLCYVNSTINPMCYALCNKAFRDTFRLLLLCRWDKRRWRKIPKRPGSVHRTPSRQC
The experiment in a line: CHRM1 Ca++ Flux Assay (agonist mode, FDSS 7000EX). Format: cell-based. The note with it: for Emax: HEK293, Percent Activity, read-out: M1 FDSS PA; for pEC50: geometric mean if tested more than once; for M1 FDSS PA: Percent Activity. The procedure, abridged:
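Compounds tested as agonists at 11 concentrations in triplicate, with calcium traces captured over 3 minutes. Cells were HEK293 with stable human CHRM1 expression, plated overnight at 25K/well and loaded with calcium dye. Responses normalized to carbachol EC100 and fitted by four-parameter nonlinear regression.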

The term pEC50 denotes the negative decadic logarithm of the EC50, by convention in mol/L. In the case of `CC(C)(O)COc1ccccc1C1CCN([C@@H]2CCC3(C2)CN(c2cncnc2)C3)CC1` [Example 5B, (R)-2-methyl-1-(2-(1-(2-(pyrimidin-5-yl)-2-azaspiro[3.4]octan-6-yl)piperidin-4-yl)phenoxy)propan-2-ol], the Emax came out at 0% in assay [1] and 35% in assay [2]. The pEC50 was under 4.60 in assay [1] and 6.72 in assay [2].

As for `COc1ccccc1C1CCN([C@@H]2CCC3(C2)CN(c2ncnc(C)n2)C3)CC1` [Example 5M, (R)-6-(4-(2-methoxyphenyl)piperidin-1-yl)-2-(4-methyl-1,3,5-triazin-2-yl)-2-azaspiro[3.4]octane], in assay [1], the Emax came to 0% and the pEC50 is under 4.60. In addition, in assay [2], the Emax turned out to be 0% and the pEC50 was under 4.60.

In the case of `O=C(N1CC2(CC[C@@H](N3CCC(c4ccccc4OCCO)CC3)C2)C1)C1(F)CC1` (single isomer, unassigned) [Example 7N, (R)-(1-fluorocyclopropyl)(6-(4-(2-(2-hydroxyethoxy)phenyl)piperidin-1-yl)-2-azaspiro[3.4]octan-2-yl)methanone or (S)-(1-fluorocyclopropyl)(6-(4-(2-(2-hydroxyethoxy)phenyl)piperidin-1-yl)-2-azaspiro[3.4]octan-2-yl)methanone], in assay [1], the “M5 FDSS PA” value was determined as 0% and the pEC50 was under 4.60. Further, in assay [2], the “M1 FDSS PA” value was 45% and the pEC50 was 7.66.

As for `Cc1nnc(COc2ccccc2C2CCN([C@@H]3CCC4(C3)CN(C(=O)C3(F)CC3)C4)CC2)o1` (single isomer, unassigned) [Example 7W, (R)-(1-fluorocyclopropyl)(6-(4-(2-((5-methyl-1,3,4-oxadiazol-2-yl)methoxy)phenyl)piperidin-1-yl)-2-azaspiro[3.4]octan-2-yl)methanone or (S)-(1-fluorocyclopropyl)(6-(4-(2-((5-methyl-1,3,4-oxadiazol-2-yl)methoxy)phenyl)piperidin-1-yl)-2-azaspiro[3.4]octan-2-yl)methanone], in assay [1], the “M5 FDSS PA” value is 8% and the pEC50 is 7.11. Further, in assay [2], the “M1 FDSS PA” value amounted to 80% and the pEC50 was 8.70.

On to `Cc1nnc(COc2ccccc2C2CCN([C@@H]3CCC4(C3)CN(C(=O)C3(F)CC3)C4)CC2)s1` (single isomer, unassigned) [Example 7R, (R)-(1-fluorocyclopropyl)(6-(4-(2-((5-methyl-1,3,4-thiadiazol-2-yl)methoxy)phenyl)piperidin-1-yl)-2-azaspiro[3.4]octan-2-yl)methanone or (S)-(1-fluorocyclopropyl)(6-(4-(2-((5-methyl-1,3,4-thiadiazol-2-yl)methoxy)phenyl)piperidin-1-yl)-2-azaspiro[3.4]octan-2-yl)methanone], for which, in assay [1], the “M5 FDSS PA” value was found to be 0% and the pEC50 is under 4.60. Also, in assay [2], the “M1 FDSS PA” value was determined as 0% and the negative-log EC50 (pEC50) was under 4.60.

For the compound `O=C(N1CC2(CC[C@@H](N3CCC(c4cc(F)ccc4C4(O)CCOCC4)CC3)C2)C1)C1(F)CC1` (single isomer, unassigned) [Example 9J, (R)-(6-(4-(5-fluoro-2-(4-hydroxytetrahydro-2H-pyran-4-yl)phenyl)piperidin-1-yl)-2-azaspiro[3.4]octan-2-yl)(1-fluorocyclopropyl)methanone or (S)-(6-(4-(5-fluoro-2-(4-hydroxytetrahydro-2H-pyran-4-yl)phenyl)piperidin-1-yl)-2-azaspiro[3.4]octan-2-yl)(1-fluorocyclopropyl)methanone], in assay [1], the “M5 FDSS PA” value is 0% and the pEC50 was under 4.60. Further, in assay [2], the “M1 FDSS PA” value is recorded as 3% and the pEC50 was 5.57.

As to `Fc1cncc(N2CC3(CC[C@@H](N4CCC(c5cc(F)ccc5OC5CCOCC5)CC4)C3)C2)c1` (single isomer, unassigned) [Example 10B, (R)-6-(4-(5-fluoro-2-((tetrahydro-2H-pyran-4-yl)oxy)phenyl)piperidin-1-yl)-2-(5-fluoropyridin-3-yl)-2-azaspiro[3.4]octane or (S)-6-(4-(5-fluoro-2-((tetrahydro-2H-pyran-4-yl)oxy)phenyl)piperidin-1-yl)-2-(5-fluoropyridin-3-yl)-2-azaspiro[3.4]octane], the “M5 FDSS PA” value in assay [1] is reported as 0%. Besides, the pEC50 in assay [1] and in assay [2] was under 4.60 each time.

Take `O=C(N1CC2(CC[C@@H](N3CCC(c4ccccc4C4(O)CCOCC4)CC3)C2)C1)C1(F)CC1` (single isomer, unassigned) [Example 9H, (R)-(1-fluorocyclopropyl)(6-(4-(2-(4-hydroxytetrahydro-2H-pyran-4-yl)phenyl)piperidin-1-yl)-2-azaspiro[3.4]octan-2-yl)methanone or (S)-(1-fluorocyclopropyl)(6-(4-(2-(4-hydroxytetrahydro-2H-pyran-4-yl)phenyl)piperidin-1-yl)-2-azaspiro[3.4]octan-2-yl)methanone]: in assay [1], the “M5 FDSS PA” value turned out to be 0% and the pEC50 was under 4.60. Further, in assay [2], the “M1 FDSS PA” value was 0% and the pEC50 is under 4.60.

Consider `Fc1ccc(OC2CCOCC2)c(C2CCN([C@@H]3CCC4(C3)CN(c3cncnc3)C4)CC2)c1` (single isomer, unassigned) [Example 10H, (R)-6-(4-(5-fluoro-2-((tetrahydro-2H-pyran-4-yl)oxy)phenyl)piperidin-1-yl)-2-(pyrimidin-5-yl)-2-azaspiro[3.4]octane or (S)-6-(4-(5-fluoro-2-((tetrahydro-2H-pyran-4-yl)oxy)phenyl)piperidin-1-yl)-2-(pyrimidin-5-yl)-2-azaspiro[3.4]octane], for which, in assay [1], the “M5 FDSS PA” value was found to be 0% and the pEC50 is under 4.60. For the same compound, in assay [2], the “M1 FDSS PA” value came out at 36% and the pEC50 was 5.86.

Regarding `COc1ccccc1C1CCN([C@@H]2CCC3(C2)CN(c2cncc(F)c2)C3)CC1` [Example 5F, (R)-2-(5-fluoropyridin-3-yl)-6-(4-(2-methoxyphenyl)piperidin-1-yl)-2-azaspiro[3.4]octane], in assay [1], the Emax came out at 17% and the pEC50 is 4.84. Further, in assay [2], the Emax turned out to be 7% and the pEC50 was 5.42.

For the compound `COc1ccccc1C1CCN([C@@H]2CCC3(C2)CN(c2ccc(C)nc2)C3)CC1` [Example 5D, (R)-6-(4-(2-methoxyphenyl)piperidin-1-yl)-2-(6-methylpyridin-3-yl)-2-azaspiro[3.4]octane], in assay [1], the Emax is 0% and the pEC50 was under 4.60. In assay [2], the Emax was determined as 0% and the pEC50 is under 4.60.

Turning to `COc1ccccc1C1CCN([C@@H]2CCC3(C2)CN(c2ncon2)C3)CC1` [Example 4A, (R)-3-(6-(4-(2-methoxyphenyl)piperidin-1-yl)-2-azaspiro[3.4]octan-2-yl)-1,2,4-oxadiazole], in assay [1], the Emax was 6% and the pEC50 is 6.15. Moreover, in assay [2], the Emax stood at 83% and the pEC50 was 7.82.

Regarding `Cc1nnc(COc2ccccc2C2CCN([C@@H]3CCC4(C3)CN(C(=O)C3(F)CC3)C4)CC2)o1` (single isomer, unassigned) [Example 7Y, (R)-(1-fluorocyclopropyl)(6-(4-(2-((5-methyl-1,3,4-oxadiazol-2-yl)methoxy)phenyl)piperidin-1-yl)-2-azaspiro[3.4]octan-2-yl)methanone or (S)-(1-fluorocyclopropyl)(6-(4-(2-((5-methyl-1,3,4-oxadiazol-2-yl)methoxy)phenyl)piperidin-1-yl)-2-azaspiro[3.4]octan-2-yl)methanone], in assay [1], the “M5 FDSS PA” value is on record as 0% and the pEC50 is under 4.60. For the same compound, in assay [2], the “M1 FDSS PA” value stood at 67% and the pEC50 was 6.61.
